# Results reported in patent publication US6444809B1, “Therapeutic heterocycles” (Zeneca Limited, priority 1993, dated 2002).
# Counter-ions that a name gives are not always drawn.
# Legend:
# [1] = biological target: T1, human NK2 receptor (Homo sapiens, UniProt P21452); test: Neurokinin A (NKA) receptor-binding assay (Test A), 3H-NKA binding to MEL cell membranes
# T1 construct: expressed in transfected cells
# T1 sequence (P21452 1-398): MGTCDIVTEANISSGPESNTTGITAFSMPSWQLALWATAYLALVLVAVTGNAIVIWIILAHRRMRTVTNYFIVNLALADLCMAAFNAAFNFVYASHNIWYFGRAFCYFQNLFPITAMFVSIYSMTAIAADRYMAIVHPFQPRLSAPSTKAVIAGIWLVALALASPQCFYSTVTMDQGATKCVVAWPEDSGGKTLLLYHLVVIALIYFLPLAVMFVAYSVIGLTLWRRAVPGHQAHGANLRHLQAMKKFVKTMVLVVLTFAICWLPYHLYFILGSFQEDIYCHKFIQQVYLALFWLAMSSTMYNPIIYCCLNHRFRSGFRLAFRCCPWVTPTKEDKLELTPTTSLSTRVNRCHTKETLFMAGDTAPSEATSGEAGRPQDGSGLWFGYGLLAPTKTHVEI
# Excerpt: Neurokinin A (NKA) Receptor-binding Assay (Test A)
# Heterologous protein expression in Mouse Erythroleukemia (MEL) cells uses the human globin locus control region (LCR) (F. Grosveld et al., Cell (1987) 51, 975-985). The cDNAs are inserted between the human beta-globin promoter and the second intron of the human beta-globin gene, and this expression cassette is then placed downstream of the LCR and transfected into MEL cells (M. Needham et al., Nucl. Acids Res. (1992) 20, 997-1003). Human NK2 receptor cDNA (A. Graham et al., Biochem. Biophys. Res. Commun. (1991) 177, 8-16) was isolated from human lung RNA by polymerase chain reaction and DNA sequenced. […] These were annealed and ligated to the hNK2R fragment by standard methods. Following cleavage with Hind III, the resulting fragment was cloned into the Hind III and Bam HI sites in the polylinker of the shuttle vector pMEG3. […] Directly after transfection, cells were diluted in culture medium to 10^4 and 10^5 cell per mL and 1 mL aliquots transferred to each well of a 24-well plate.
# G418 was added to a concentration of 1 mg/mL 24 hours after the transfection to select for stable transfectants. […]
# Nonspecific binding is routinely defined with 1 μM NKA. […] The filters are deposited in scintillation vials and read in a Beckman LS 6000LL Scintillation Counter.
# [2] = tested on: guinea pig trachea; test: Guinea pig assay (Test B), antagonism of agonist (NKA or [β-Ala8]-NKA(4-10)) contraction of tracheal rings; format: cell-based
# Procedure: Guinea Pig Assay (Test B)
# In the test described below either NKA or [β-Ala^8]-NKA(4-10) is used as an agonist. The chosen agonist is refered to as AG throughout the description.
# Male guinea pigs are killed by a sharp blow to the back of the head. The trachea are removed, trimmed of excess tissue and divided into two segments. […] Initial tension placed on each tissue is 1 g, which is maintained throughout a 0.5 to 1.5 hour equilibration period before addition of other drugs. Contractile responses are measured on a Grass polygraph via Grass FT-03 force transducers.
# Tissues are challenged repetitively with a single concentration of AG (10 nM) with intervening 30 min periods with washing to allow the tension to return to baseline levels. […] Percent inhibition is determined when a Compound produces a statistically significant (p<0.05) reduction of the contraction and is calculated using the second contractile response as 100%.
# Potencies of selected Compounds are evaluated by calculating apparent dissociation constants (KB) for each concentration tested using the standard equation: […]
# where dose ratio=antilog[(AG −log molar EC50 without Compound) −(AG−log molar EC50 with Compound)]. The KB values may be converted to the negative logarithms and expressed as −log molar KB (i.e. PKB). […] The EC50 values are converted to the negative logarithms and expressed as −log molar EC50. […]
"Ki ([1]; Test A, typically found) [nM]",Structure (SMILES),NK2 antagonist activity in the in vitro screen (Test A) ([1]; result in words),NK2 antagonist activity in the functional assay (Test B) ([2]; result in words),"Kb ([2]; Cavia porcellus, Test B, -log molar apparent dissociation constant KB) [nM]"
,"CN(CC(CCN1CCC(N2CCOC2=O)CC1)c1ccc(Cl)c(Cl)c1)C(=O)c1ccccc1.Cl (stereo not shown) [Example 1, N-[2-(3,4-Dichlorophenyl)-4-[4-(2-oxo-1,3-oxazolidin-3-yl)piperidino]butyl]-N-methylbenzamide hydrochoride]",potent NK2 antagonist,potent NK2 antagonist,
4.1,"CN(C[C@@H](CCN1CCC(N2CCCOC2=O)CC1)c1ccc(Cl)c(Cl)c1)C(=O)c1ccccc1 [Example 2, (S)-N-[2-(3,4-Dichlorophenyl)-4-(2-oxoperhydro-1,3-oxa-zin-3-yl)piperidino]butyl]-N-methylbenzamide hydrochloride]",,,2
